From ChEMBL document CHEMBL1201861, “Genomics of Drug Sensitity in Cancer screening data, Wellcome Trust Sanger Institute”

Assays:
Assay in all cases: cells
Type in all cases: functional, cell-based, Homo sapiens
[1] = test system: QIMR-WIL; conditions: Homo sapiens, QIMR-WIL;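 also: growth inhibition of QIMR-WIL cells, read out with a cell viability assay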
Description: SANGER: Inhibition of human QIMR-WIL cell growth in a cell viability assay.

[2] = test system: RPMI-8866; conditions: Homo sapiens, RPMI-8866
Description: SANGER: Inhibition of human RPMI-8866 cell growth in a cell viability assay.

[3] = test system: Mo; conditions: Homo sapiens, Mo
Description: SANGER: Inhibition of human Mo-T cell growth in a cell viability assay.

[4] = test system: LB771-HNC; conditions: Homo sapiens, LB771-HNC;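 also: growth inhibition of LB771-HNC human cells, read out with a cell viability assay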
Description: SANGER: Inhibition of human LB771-HNC cell growth in a cell viability assay.

[5] = test system: SCH; conditions: Homo sapiens, SCH;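 also: growth inhibition of human SCH cells, read out in a cell viability assay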
Description: SANGER: Inhibition of human SCH cell growth in a cell viability assay.

[6] = test system: NCI-H1395; conditions: Homo sapiens, NCI-H1395;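 also: cell viability assay read-out quantifying reduced proliferation of human NCI-H1395 cells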
Description: SANGER: Inhibition of human NCI-H1395 cell growth in a cell viability assay.

[7] = test system: MS-1; conditions: Homo sapiens, MS-1;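 also: growth inhibition of MS-1 cells, read out by cell viability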
Description: SANGER: Inhibition of human MS-1 cell growth in a cell viability assay.

[8] = test system: RS4-11; conditions: Homo sapiens, RS4-11;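 also: growth inhibition of RS4-11 cells, read out by a cell viability assay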
Description: SANGER: Inhibition of human RS4-11 cell growth in a cell viability assay.

[9] = test system: HCE-4; conditions: Homo sapiens, HCE-4;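 also: cell viability assay measuring inhibition of growth in the human HCE-4 cell line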
Description: SANGER: Inhibition of human HCE-4 cell growth in a cell viability assay.

[10] = test system: IST-MEL1; conditions: Homo sapiens, IST-MEL1;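 also: growth inhibition of the cell line, read out with a cell viability assay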
Description: SANGER: Inhibition of human IST-MEL1 cell growth in a cell viability assay.

[11] = test system: NOMO-1; conditions: Homo sapiens, NOMO-1;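 also: growth inhibition of human NOMO-1 cells measured by a cell viability assay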
Description: SANGER: Inhibition of human NOMO-1 cell growth in a cell viability assay.

[12] = test system: BB30-HNC; conditions: Homo sapiens, BB30-HNC;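 also: growth inhibition of the cultured cell line, read out by a cell viability assay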
Description: SANGER: Inhibition of human BB30-HNC cell growth in a cell viability assay.

[13] = test system: KARPAS-45; conditions: Homo sapiens, KARPAS-45;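 also: inhibition of cell line growth, read out through a viability assay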
Description: SANGER: Inhibition of human KARPAS-45 cell growth in a cell viability assay.

[14] = test system: SF-539; conditions: Homo sapiens, SF-539;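 also: Read-out is a cell viability assay, with IC50 reflecting inhibition of cell growth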
Description: SANGER: Inhibition of human SF539 cell growth in a cell viability assay.

[15] = test system: NCI-H1770; conditions: Homo sapiens, NCI-H1770;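 also: growth inhibition of NCI-H1770 cells determined with a viability readout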
Description: SANGER: Inhibition of human NCI-H1770 cell growth in a cell viability assay.

[16] = test system: DSH1; conditions: Homo sapiens, DSH1;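 also: growth inhibition of human DSH1 cells, measured with a cell viability readout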
Description: SANGER: Inhibition of human DSH1 cell growth in a cell viability assay.

[17] = test system: KG-1; conditions: Homo sapiens, KG-1;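 also: growth inhibition of KG-1 cells, read out by a cell viability assay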
Description: SANGER: Inhibition of human KG-1 cell growth in a cell viability assay.

[18] = test system: NOS-1; conditions: Homo sapiens, NOS-1;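 also: growth inhibition of the human NOS-1 cell line, read out with a cell viability assay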
Description: SANGER: Inhibition of human NOS-1 cell growth in a cell viability assay.

[19] = test system: HCC2157; conditions: Homo sapiens, HCC2157;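 also: growth inhibition of the cancer cell line, read out as cell viability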
Description: SANGER: Inhibition of human HCC2157 cell growth in a cell viability assay.

[20] = test system: KNS-81-FD; conditions: Homo sapiens, KNS-81-FD;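 also: growth inhibition of KNS-81-FD cells, read out with a cell viability assay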
Description: SANGER: Inhibition of human KNS-81-FD cell growth in a cell viability assay.

[21] = test system: 8-MG-BA; conditions: Homo sapiens, 8-MG-BA;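 also: growth inhibition of 8-MG-BA cells, read out with a cell viability assay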
Description: SANGER: Inhibition of human 8-MG-BA cell growth in a cell viability assay.

[22] = test system: NB10; conditions: Homo sapiens, NB10;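 also: growth inhibition of NB10 cells, read out by a cell viability assay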
Description: SANGER: Inhibition of human NB10 cell growth in a cell viability assay.

[23] = test system: NCI-H82; conditions: Homo sapiens, NCI-H82;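 also: growth inhibition of NCI-H82 cells, measured with a cell viability readout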
Description: SANGER: Inhibition of human NCI-H82 cell growth in a cell viability assay.

[24] = test system: SF-268; conditions: Homo sapiens, SF-268;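 also: growth inhibition of SF-268 cells determined with a cell viability assay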
Description: SANGER: Inhibition of human SF268 cell growth in a cell viability assay.

[25] = test system: LU-134-A; conditions: Homo sapiens, LU-134-A
Description: SANGER: Inhibition of human LU-134-A cell growth in a cell viability assay.

[26] = test system: COLO-829; conditions: Homo sapiens, COLO-829
Description: SANGER: Inhibition of human COLO-829 cell growth in a cell viability assay.

[27] = test system: MOLT-4; conditions: Homo sapiens, MOLT-4;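 also: growth inhibition of MOLT-4 cells, determined with a cell viability readout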
Description: SANGER: Inhibition of human MOLT-4 cell growth in a cell viability assay.

[28] = test system: ETK-1; conditions: Homo sapiens, ETK-1;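 also: growth inhibition of human ETK-1 cells, read out with a cell viability assay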
Description: SANGER: Inhibition of human ETK-1 cell growth in a cell viability assay.

[29] = test system: BB49-HNC; conditions: Homo sapiens, BB49-HNC;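 also: cell viability assay read-out, reported as inhibition of BB49-HNC cell growth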
Description: SANGER: Inhibition of human BB49-HNC cell growth in a cell viability assay.

[30] = test system: TGBC1TKB; conditions: Homo sapiens, TGBC1TKB;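 also: growth inhibition of TGBC1TKB cells, read out by a cell viability assay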
Description: SANGER: Inhibition of human TGBC1TKB cell growth in a cell viability assay.

[31] = test system: JVM-2; conditions: Homo sapiens, JVM-2;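 also: growth inhibition of JVM-2 cells determined by a cell viability assay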
Description: SANGER: Inhibition of human JVM-2 cell growth in a cell viability assay.

[32] = test system: KE-37; conditions: Homo sapiens, KE-37;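 also: growth inhibition of KE-37 cells, read out with a cell viability assay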
Description: SANGER: Inhibition of human KE-37 cell growth in a cell viability assay.

[33] = test system: KM-H2; conditions: Homo sapiens, KM-H2;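 also: growth inhibition of KM-H2 cells, read out by a cell viability assay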
Description: SANGER: Inhibition of human KM-H2 cell growth in a cell viability assay.

[34] = test system: RXF 393; conditions: Homo sapiens, RXF 393;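 also: growth inhibition of human RXF 393 cells, read out with a cell viability assay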
Description: SANGER: Inhibition of human RXF393 cell growth in a cell viability assay.

[35] = test system: ES6; conditions: Homo sapiens, ES6;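 also: growth inhibition of human ES6 cells, read out with a cell viability assay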
Description: SANGER: Inhibition of human ES6 cell growth in a cell viability assay.

[36] = test system: NCI-H1650; conditions: Homo sapiens, NCI-H1650;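 also: growth inhibition of human NCI-H1650 cells measured by a cell viability assay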
Description: SANGER: Inhibition of human NCI-H1650 cell growth in a cell viability assay.

[37] = test system: OCUB-M; conditions: Homo sapiens, OCUB-M;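 also: growth inhibition of the cancer cell line, read out through a cell viability assay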
Description: SANGER: Inhibition of human OCUB-M cell growth in a cell viability assay.

[38] = test system: LS-1034; conditions: Homo sapiens, LS-1034
Description: SANGER: Inhibition of human LS-1034 cell growth in a cell viability assay.

[39] = test system: EW-13; conditions: Homo sapiens, EW-13;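 also: growth inhibition of EW-13 cells, read out with a cell viability assay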
Description: SANGER: Inhibition of human EW-13 cell growth in a cell viability assay.

[40] = test system: A4-Fuk; conditions: Homo sapiens, A4-Fuk;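 also: growth inhibition of A4-Fuk cells, read out by a cell viability assay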
Description: SANGER: Inhibition of human A4-Fuk cell growth in a cell viability assay.

[41] = test system: SK-MEL-1; conditions: Homo sapiens, SK-MEL-1;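 also: growth inhibition of human SK-MEL-1 cells, read out by a cell viability assay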
Description: SANGER: Inhibition of human SK-MEL-1 cell growth in a cell viability assay.

[42] = test system: KURAMOCHI; conditions: Homo sapiens, KURAMOCHI;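 also: growth inhibition of KURAMOCHI cells, read out with a cell viability assay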
Description: SANGER: Inhibition of human KURAMOCHI cell growth in a cell viability assay.

[43] = test system: LS-513; conditions: Homo sapiens, LS-513
Description: SANGER: Inhibition of human LS-513 cell growth in a cell viability assay.

[44] = test system: COLO-668; conditions: Homo sapiens, COLO-668
Description: SANGER: Inhibition of human COLO-668 cell growth in a cell viability assay.

[45] = test system: U-266; conditions: Homo sapiens, U-266
Description: SANGER: Inhibition of human U-266 cell growth in a cell viability assay.

[46] = test system: CAS-1; conditions: Homo sapiens, CAS-1;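 also: growth inhibition of CAS-1 cells, measured with a cell viability assay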
Description: SANGER: Inhibition of human CAS-1 cell growth in a cell viability assay.

[47] = test system: TE-6; conditions: Homo sapiens, TE-6;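 also: growth inhibition of TE-6 cells, read out with a cell viability assay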
Description: SANGER: Inhibition of human TE-6 cell growth in a cell viability assay.

[48] = test system: HCE-T; conditions: Homo sapiens, HCE-T;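 also: cell viability assay read-out, reporting inhibition of HCE-T cell growth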
Description: SANGER: Inhibition of human HCE-T cell growth in a cell viability assay.

[49] = test system: EW-24; conditions: Homo sapiens, EW-24;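 also: human EW-24 cancer cell line, growth inhibition read out via a cell viability assay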
Description: SANGER: Inhibition of human EW-24 cell growth in a cell viability assay.

## CCN(CC)CCCCNc1ncc2cc(-c3cc(OC)cc(OC)c3)c(NC(=O)NC(C)(C)C)nc2n1 [PD-173074]
[1]
  IC50: > 2000 nM
[2]
  IC50: > 2000 nM
[3]
  IC50: > 2000 nM
[4]
  IC50: > 2000 nM
[5]
  IC50: > 2000 nM
[6]
  IC50: > 2000 nM
[7]
  IC50: > 2000 nM
[8]
  IC50: 1340 nM
[9]
  IC50: > 2000 nM
[10]
  IC50: > 2000 nM
[11]
  IC50: > 2000 nM
[12]
  IC50: > 2000 nM
[13]
  IC50: > 2000 nM
[14]
  IC50: > 2000 nM
[15]
  IC50: > 2000 nM
[16]
  IC50: > 2000 nM
[17]
  IC50: 51.3 nM
[18]
  IC50: > 2000 nM
[19]
  IC50: > 2000 nM
[20]
  IC50: > 2000 nM
[21]
  IC50: > 2000 nM
[22]
  IC50: > 2000 nM
[23]
  IC50: > 2000 nM
[24]
  IC50: > 2000 nM
[25]
  IC50: > 2000 nM
[26]
  IC50: > 2000 nM
[27]
  IC50: > 2000 nM
[28]
  IC50: > 2000 nM
[29]
  IC50: > 2000 nM
[30]
  IC50: > 2000 nM
[31]
  IC50: > 2000 nM
[32]
  IC50: > 2000 nM
[33]
  IC50: > 2000 nM
[34]
  IC50: > 2000 nM
[35]
  IC50: > 2000 nM
[36]
  IC50: > 2000 nM
[37]
  IC50: > 2000 nM
[38]
  IC50: > 2000 nM
[39]
  IC50: > 2000 nM
[40]
  IC50: > 2000 nM
[41]
  IC50: > 2000 nM
[42]
  IC50: > 2000 nM
[43]
  IC50: > 2000 nM
[44]
  IC50: > 2000 nM
[45]
  IC50: > 2000 nM
[46]
  IC50: > 2000 nM
[47]
  IC50: > 2000 nM
[48]
  IC50: > 2000 nM

## Cc1cn(-c2cc(NC(=O)c3ccc(C)c(Nc4nccc(-c5cccnc5)n4)c3)cc(C(F)(F)F)c2)cn1 [NILOTINIB]
[1]
  IC50: > 2000 nM
[2]
  IC50: > 2000 nM
[3]
  IC50: > 2000 nM
[4]
  IC50: > 2000 nM
[5]
  IC50: > 2000 nM
[6]
  IC50: > 2000 nM
[7]
  IC50: > 2000 nM
[8]
  IC50: > 2000 nM
[9]
  IC50: > 2000 nM
[10]
  IC50: > 2000 nM
[11]
  IC50: > 2000 nM
[12]
  IC50: > 2000 nM
[13]
  IC50: > 2000 nM
[14]
  IC50: > 2000 nM
[15]
  IC50: > 2000 nM
[16]
  IC50: > 2000 nM
[17]
  IC50: > 2000 nM
[18]
  IC50: > 2000 nM
[20]
  IC50: > 2000 nM
[21]
  IC50: > 2000 nM
[22]
  IC50: > 2000 nM
[23]
  IC50: > 2000 nM
[24]
  IC50: > 2000 nM
[25]
  IC50: > 2000 nM
[26]
  IC50: > 2000 nM
[27]
  IC50: > 2000 nM
[49]
  IC50: > 2000 nM
[28]
  IC50: > 2000 nM
[29]
  IC50: > 2000 nM
[30]
  IC50: > 2000 nM
[31]
  IC50: > 2000 nM
[32]
  IC50: > 2000 nM
[33]
  IC50: > 2000 nM
[34]
  IC50: > 2000 nM
[35]
  IC50: > 2000 nM
[36]
  IC50: > 2000 nM
[37]
  IC50: > 2000 nM
[38]
  IC50: > 2000 nM
[39]
  IC50: > 2000 nM
[40]
  IC50: > 2000 nM
[41]
  IC50: > 2000 nM
[42]
  IC50: > 2000 nM
[43]
  IC50: > 2000 nM
[44]
  IC50: > 2000 nM
[45]
  IC50: > 2000 nM
[46]
  IC50: > 2000 nM
[47]
  IC50: > 2000 nM
[48]
  IC50: > 2000 nM

## Cn1cnc2c(F)c(Nc3ccc(Br)cc3Cl)c(C(=O)NOCCO)cc21 [SELUMETINIB]
[1]
  IC50: 1340 nM
[2]
  IC50: > 4000 nM
[3]
  IC50: > 4000 nM
[4]
  IC50: > 4000 nM
[5]
  IC50: > 4000 nM
[6]
  IC50: > 4000 nM
[7]
  IC50: > 4000 nM
[8]
  IC50: > 4000 nM
[9]
  IC50: > 4000 nM
[10]
  IC50: > 4000 nM
[11]
  IC50: 32 nM
[12]
  IC50: 2710 nM
[13]
  IC50: 2080 nM
[14]
  IC50: > 4000 nM
[15]
  IC50: > 4000 nM
[16]
  IC50: > 4000 nM
[17]
  IC50: 895 nM
[18]
  IC50: > 4000 nM
[19]
  IC50: > 4000 nM
[20]
  IC50: > 4000 nM
[21]
  IC50: > 4000 nM
[22]
  IC50: > 4000 nM
[23]
  IC50: > 4000 nM
[24]
  IC50: > 4000 nM
[25]
  IC50: > 4000 nM
[27]
  IC50: > 4000 nM
[28]
  IC50: > 4000 nM
[29]
  IC50: > 4000 nM
[30]
  IC50: > 4000 nM
[31]
  IC50: > 4000 nM
[32]
  IC50: > 4000 nM
[33]
  IC50: > 4000 nM
[34]
  IC50: > 4000 nM
[35]
  IC50: > 4000 nM
[36]
  IC50: > 4000 nM
[37]
  IC50: > 4000 nM
[38]
  IC50: > 4000 nM
[39]
  IC50: > 4000 nM
[40]
  IC50: > 4000 nM
[41]
  IC50: > 4000 nM
[42]
  IC50: > 4000 nM
[43]
  IC50: 1420 nM
[44]
  IC50: > 4000 nM
[45]
  IC50: 488 nM
[46]
  IC50: > 4000 nM
[47]
  IC50: > 4000 nM
[48]
  IC50: 971 nM
